From US20090170899A1, “Stimulators of 5-HT4 receptors and uses thereof” (priority 2004, published 2009)
Like-named read-outs stand apart in the source and are kept apart here.

Assays:
DRN 5-HT neurons [1] = assay: Reversal by acute prucalopride of the inhibition of DRN 5-HT neuron firing rate induced by i.v. SSRIs; assay type: in vivo, rat; conditions: acute intravenous administration
From the text: FIGS. 6A and 6B illustrate the effect of prucalopride on the inhibition of 5-HT neuronal firing rate induced by SSRIs fluxoamine and citalopram.
In FIGS. 6A and 6B, the firing activity of the 5-HT neuron is suppressed following the acute intravenous administration of the antidepressant SSRIs fluvoxamine and citalopram. This suppression of the firing activity is due to the activation of the 5-HT1A autoreceptors, subsequent to the increase of the concentration of endogenous 5-HT, following the blockade of the 5-HT reuptake sites.

DRN 5-HT neurons [2] = conditions: cited from earlier work
[3] = system: BrdU-positive cells in the sub-granular zone (SGZ) of the hippocampus; conditions: cited from earlier work

Structure (SMILES): COCCCC/C(=N\OCCN)c1ccc(C(F)(F)F)cc1 [fluvoxamine]
- firing activity of the 5-HT neuron after SSRI (DRN 5-HT neurons [1]): suppressed

Structure (SMILES): CN1CCN2c3ncccc3Cc3ccccc3C2C1 (stereo not drawn) [mirtazapine]
- effect on 5-HT neuron firing rate (DRN 5-HT neurons [2]; acute conditions, Haddjeri et al., 1996): increases
- effect on 5-HT neuron firing rate (DRN 5-HT neurons [2]; after a 2-day treatment, Besson et al., 2000): no longer present

Structure (SMILES): CNCCC(Oc1ccc(C(F)(F)F)cc1)c1ccccc1 (stereo not drawn) [fluoxetine]
- increase of hippocampal neurogenesis ([3]; 14-day treatment, Malberg et al., 2000): +35%
- quickest effect reported on hippocampal neurogenesis ([3]; Santarelli et al., 2003): 11 days
- activity on hippocampal neurogenesis ([3]; at 5 days, Santarelli et al., 2003): inactive
